According to patent US20260262643A1, “HERBICIDAL BENZOXAZINES” (FMC CORPORATION, priority 2022, published 2026):

What was measured:
[1] = tested on: galium; assay: Test A postemergence; assay type: in vivo, Galium aparine
Summary of the method: (§1)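 Plants were grown in loam and sand and treated preemergence or postemergence (one- to two-leaf stage, 2–10 cm) with compound in solvent plus surfactant. Response was scored against untreated controls after 10 greenhouse days, where 0 means no effect and 100 complete control.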

[2] = tested on: soybean; assay: Test A postemergence; assay type: in vivo, Glycine max
Summary of the method: as §1

[3] = tested on: ryegrass, Italian; assay: Test A preemergence; assay type: in vivo, Lolium multiflorum
Summary of the method: as §1

[4] = tested on: corn; assay: Test A postemergence; assay type: in vivo, Zea mays
Summary of the method: as §1

[5] = tested on: sedge, umbrella; assay: Test B flooded paddy test; assay type: in vivo, Cyperus difformis; conditions: 250 g ai/ha, Flood, 13 days, 0 to 100 scale (0 no effect, 100 complete control)
Summary of the method: (§2)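 Two-leaf plants, 3 cm flood, in-water application, 13-day greenhouse hold, visual 0–100 rating vs untreated checks.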

[6] = tested on: blackgrass; assay: Test A postemergence; assay type: in vivo, Alopecurus myosuroides
Summary of the method: as §1

[7] = tested on: corn; assay: Test A preemergence; assay type: in vivo, Zea mays
Summary of the method: as §1

[8] = tested on: wheat; assay: Test A preemergence; assay type: in vivo, Triticum aestivum
Summary of the method: as §1

[9] = tested on: foxtail, giant; assay: Test A preemergence; assay type: in vivo, Setaria faberi
Summary of the method: as §1

[10] = tested on: goosegrass; assay: Test A postemergence; assay type: in vivo, Eleusine indica
Summary of the method: as §1

[11] = tested on: kochia; assay: Test A preemergence; assay type: in vivo, Bassia scoparia
Summary of the method: as §1

[12] = tested on: pigweed, palmer; assay: Test A postemergence; assay type: in vivo, Amaranthus palmeri
Summary of the method: as §1

[13] = tested on: barnyardgrass; assay: Test B flooded paddy test; assay type: in vivo, Echinochloa crus-galli; conditions: 250 g ai/ha, Flood, 13 days, 0 to 100 scale (0 no effect, 100 complete control)
Summary of the method: as §2

[14] = tested on: foxtail, giant; assay: Test A postemergence; assay type: in vivo, Setaria faberi
Summary of the method: as §1

[15] = tested on: pigweed, palmer; assay: Test A preemergence; assay type: in vivo, Amaranthus palmeri
Summary of the method: as §1

[16] = tested on: blackgrass; assay: Test A preemergence; assay type: in vivo, Alopecurus myosuroides
Summary of the method: as §1

[17] = tested on: ragweed; assay: Test A postemergence; assay type: in vivo, Ambrosia artemisiifolia
Summary of the method: as §1

[18] = tested on: ragweed; assay: Test A preemergence; assay type: in vivo, Ambrosia artemisiifolia
Summary of the method: as §1

[19] = tested on: kochia; assay: Test A postemergence; assay type: in vivo, Bassia scoparia
Summary of the method: as §1

[20] = tested on: rice; assay: Test B flooded paddy test; assay type: in vivo, Oryza sativa; conditions: 250 g ai/ha, Flood, 13 days, 0 to 100 scale (0 no effect, 100 complete control)
Summary of the method: as §2

[21] = tested on: oat, wild; assay: Test A preemergence; assay type: in vivo, Avena fatua
Summary of the method: as §1

[22] = tested on: ducksalad; assay: Test B flooded paddy test; assay type: in vivo, Heteranthera limosa; conditions: 250 g ai/ha, Flood, 13 days, 0 to 100 scale (0 no effect, 100 complete control)
Summary of the method: as §2

[23] = tested on: oat, wild; assay: Test A postemergence; assay type: in vivo, Avena fatua
Summary of the method: as §1

[24] = tested on: wheat; assay: Test A postemergence; assay type: in vivo, Triticum aestivum
Summary of the method: as §1

[25] = tested on: soybean; assay: Test A preemergence; assay type: in vivo, Glycine max
Summary of the method: as §1

[26] = tested on: ryegrass, Italian; assay: Test A postemergence; assay type: in vivo, Lolium multiflorum
Summary of the method: as §1

[27] = tested on: goosegrass; assay: Test A preemergence; assay type: in vivo, Eleusine indica
Summary of the method: as §1

[28] = tested on: horseweed; assay: Test A postemergence; assay type: in vivo, Erigeron canadensis
Summary of the method: as §1

[29] = 125 g ai/ha, postemergence, 10 days, visual injury, 0 to 100 scale (0 no effect, 100 complete control)
[30] = 500 g ai/ha, Postemergence, 0 to 100 scale
[31] = 125 g ai/ha, visual injury after 10 days, 0 to 100 scale, 0 is no effect, 100 is complete control
[32] = 500 g ai/ha, 0 to 100 scale (0 no effect, 100 complete control), 10 days

Cc1cccc2c1O[C@@H](C)CN2C(=O)c1ccc(F)c(-n2cncn2)c1 [Compound 52]
Plant response rating, Galium [1, 29]: 30 | Plant response rating, Galium [1, 30]: 90 | Plant response rating, Soybean [2, 29]: 100 | Plant response rating, Soybean [2, 30]: 100 | Plant response rating, Ryegrass, Italian [3, 31]: 80 | Plant response rating, Ryegrass, Italian [3, 32]: 100 | Plant response rating, Corn [4, 29]: 40 | Plant response rating, Corn [4, 30]: 70 | Plant response rating, Sedge, Umbrella [5]: 75 | Plant response rating, Blackgrass [6, 29]: 50 | Plant response rating, Blackgrass [6, 30]: 60 | Plant response rating, Corn [7, 31]: 20 | Plant response rating, Corn [7, 32]: 40 | Plant response rating, Wheat [8, 31]: 30 | Plant response rating, Wheat [8, 32]: 60 | Plant response rating, Foxtail, Giant [9, 31]: 90 | Plant response rating, Foxtail, Giant [9, 32]: 100 | Plant response rating, Goosegrass [10, 29]: 50 | Plant response rating, Goosegrass [10, 30]: 60 | Plant response rating, Kochia [11, 31]: 0 | Plant response rating, Kochia [11, 32]: 70 | Plant response rating, Pigweed, Palmer [12, 29]: 30 | Plant response rating, Pigweed, Palmer [12, 30]: 60 | Plant response rating, Barnyardgrass [13]: 25 | Plant response rating, Foxtail, Giant [14, 29]: 60 | Plant response rating, Foxtail, Giant [14, 30]: 90 | Plant response rating, Pigweed, Palmer [15, 31]: 0 | Plant response rating, Pigweed, Palmer [15, 32]: 100 | Plant response rating, Blackgrass [16, 31]: 50 | Plant response rating, Blackgrass [16, 32]: 60 | Plant response rating, Ragweed [17, 29]: 0 | Plant response rating, Ragweed [17, 30]: 30 | Plant response rating, Ragweed [18, 31]: 0 | Plant response rating, Ragweed [18, 32]: 70 | Plant response rating, Kochia [19, 29]: 10 | Plant response rating, Kochia [19, 30]: 60 | Plant response rating, Rice [20]: 10 | Plant response rating, Oat, Wild [21, 31]: 40 | Plant response rating, Oat, Wild [21, 32]: 80 | Plant response rating, Ducksalad [22]: 50 | Plant response rating, Oat, Wild [23, 29]: 20 | Plant response rating, Oat, Wild [23, 30]: 80 | Plant response rating, Wheat [24, 29]: 30 | Plant response rating, Wheat [24, 30]: 60 | Plant response rating, Soybean [25, 31]: 30 | Plant response rating, Soybean [25, 32]: 90 | Plant response rating, Ryegrass, Italian [26, 29]: 40 | Plant response rating, Ryegrass, Italian [26, 30]: 80 | Plant response rating, Goosegrass [27, 31]: 90 | Plant response rating, Goosegrass [27, 32]: 100 | Plant response rating, Horseweed [28, 29]: 0 | Plant response rating, Horseweed [28, 30]: 0

Cc1ccc(-n2cncn2)cc1C(=O)N1C[C@H](C)Oc2c(C)cccc21 [Compound 57]
Plant response rating, Galium [1, 29]: 80 | Plant response rating, Galium [1, 30]: 100 | Plant response rating, Soybean [2, 29]: 100 | Plant response rating, Soybean [2, 30]: 100 | Plant response rating, Ryegrass, Italian [3, 31]: 80 | Plant response rating, Ryegrass, Italian [3, 32]: 100 | Plant response rating, Corn [4, 29]: 70 | Plant response rating, Corn [4, 30]: 80 | Plant response rating, Sedge, Umbrella [5]: 90 | Plant response rating, Blackgrass [6, 29]: 50 | Plant response rating, Blackgrass [6, 30]: 80 | Plant response rating, Corn [7, 31]: 0 | Plant response rating, Corn [7, 32]: 40 | Plant response rating, Wheat [8, 31]: 20 | Plant response rating, Wheat [8, 32]: 80 | Plant response rating, Foxtail, Giant [9, 31]: 100 | Plant response rating, Foxtail, Giant [9, 32]: 100 | Plant response rating, Goosegrass [10, 29]: 40 | Plant response rating, Goosegrass [10, 30]: 90 | Plant response rating, Kochia [11, 31]: 40 | Plant response rating, Kochia [11, 32]: 30 | Plant response rating, Pigweed, Palmer [12, 29]: 20 | Plant response rating, Pigweed, Palmer [12, 30]: 50 | Plant response rating, Barnyardgrass [13]: 15 | Plant response rating, Foxtail, Giant [14, 29]: 90 | Plant response rating, Foxtail, Giant [14, 30]: 90 | Plant response rating, Pigweed, Palmer [15, 31]: 30 | Plant response rating, Pigweed, Palmer [15, 32]: 100 | Plant response rating, Blackgrass [16, 31]: 60 | Plant response rating, Blackgrass [16, 32]: 90 | Plant response rating, Ragweed [17, 29]: 30 | Plant response rating, Ragweed [17, 30]: 50 | Plant response rating, Ragweed [18, 31]: 0 | Plant response rating, Ragweed [18, 32]: 50 | Plant response rating, Kochia [19, 29]: 10 | Plant response rating, Kochia [19, 30]: 30 | Plant response rating, Rice [20]: 0 | Plant response rating, Oat, Wild [21, 31]: 50 | Plant response rating, Oat, Wild [21, 32]: 90 | Plant response rating, Ducksalad [22]: 65 | Plant response rating, Oat, Wild [23, 29]: 80 | Plant response rating, Oat, Wild [23, 30]: 90 | Plant response rating, Wheat [24, 29]: 70 | Plant response rating, Wheat [24, 30]: 90 | Plant response rating, Soybean [25, 31]: 100 | Plant response rating, Soybean [25, 32]: 100 | Plant response rating, Ryegrass, Italian [26, 29]: 70 | Plant response rating, Ryegrass, Italian [26, 30]: 100 | Plant response rating, Goosegrass [27, 31]: 90 | Plant response rating, Goosegrass [27, 32]: 100 | Plant response rating, Horseweed [28, 29]: 0 | Plant response rating, Horseweed [28, 30]: 20

O=C(c1cccc(-n2cncn2)c1)N1CC(C(F)(F)F)Oc2c(Cl)cccc21 (centres unmarked) [Compound 59]
Plant response rating, Galium [1, 29]: 90 | Plant response rating, Galium [1, 30]: 100 | Plant response rating, Soybean [2, 30]: 100 | Plant response rating, Ryegrass, Italian [3, 31]: 90 | Plant response rating, Ryegrass, Italian [3, 32]: 100 | Plant response rating, Corn [4, 30]: 20 | Plant response rating, Sedge, Umbrella [5]: 0 | Plant response rating, Blackgrass [6, 29]: 20 | Plant response rating, Blackgrass [6, 30]: 80 | Plant response rating, Corn [7, 32]: 20 | Plant response rating, Wheat [8, 31]: 0 | Plant response rating, Wheat [8, 32]: 50 | Plant response rating, Foxtail, Giant [9, 31]: 90 | Plant response rating, Foxtail, Giant [9, 32]: 100 | Plant response rating, Goosegrass [10, 29]: 20 | Plant response rating, Goosegrass [10, 30]: 50 | Plant response rating, Kochia [11, 31]: 0 | Plant response rating, Kochia [11, 32]: 90 | Plant response rating, Pigweed, Palmer [12, 29]: 20 | Plant response rating, Pigweed, Palmer [12, 30]: 50 | Plant response rating, Barnyardgrass [13]: 0 | Plant response rating, Foxtail, Giant [14, 29]: 40 | Plant response rating, Foxtail, Giant [14, 30]: 90 | Plant response rating, Pigweed, Palmer [15, 31]: 10 | Plant response rating, Pigweed, Palmer [15, 32]: 100 | Plant response rating, Blackgrass [16, 31]: 0 | Plant response rating, Blackgrass [16, 32]: 60 | Plant response rating, Ragweed [17, 29]: 40 | Plant response rating, Ragweed [17, 30]: 40 | Plant response rating, Ragweed [18, 31]: 0 | Plant response rating, Ragweed [18, 32]: 0 | Plant response rating, Kochia [19, 29]: 10 | Plant response rating, Kochia [19, 30]: 70 | Plant response rating, Rice [20]: 0 | Plant response rating, Oat, Wild [21, 31]: 20 | Plant response rating, Oat, Wild [21, 32]: 90 | Plant response rating, Ducksalad [22]: 0 | Plant response rating, Oat, Wild [23, 29]: 10 | Plant response rating, Oat, Wild [23, 30]: 50 | Plant response rating, Wheat [24, 29]: 10 | Plant response rating, Wheat [24, 30]: 40 | Plant response rating, Soybean [25, 32]: 90 | Plant response rating, Ryegrass, Italian [26, 29]: 0 | Plant response rating, Ryegrass, Italian [26, 30]: 60 | Plant response rating, Goosegrass [27, 31]: 90 | Plant response rating, Goosegrass [27, 32]: 100 | Plant response rating, Horseweed [28, 29]: 0 | Plant response rating, Horseweed [28, 30]: 0
